Measured values as given in patent US20040248919A1, “Fluorinated trienes and their use as rxr modulators” (priority 2001, published 2004).

Experiments:
Test in all cases: RAR binding, competition with tritiated retinoid
RARβ = target: T1, RARβ (Homo sapiens, UniProt P10826); conditions: read-out: RAR Binding beta
T1 sequence (P10826 1-455): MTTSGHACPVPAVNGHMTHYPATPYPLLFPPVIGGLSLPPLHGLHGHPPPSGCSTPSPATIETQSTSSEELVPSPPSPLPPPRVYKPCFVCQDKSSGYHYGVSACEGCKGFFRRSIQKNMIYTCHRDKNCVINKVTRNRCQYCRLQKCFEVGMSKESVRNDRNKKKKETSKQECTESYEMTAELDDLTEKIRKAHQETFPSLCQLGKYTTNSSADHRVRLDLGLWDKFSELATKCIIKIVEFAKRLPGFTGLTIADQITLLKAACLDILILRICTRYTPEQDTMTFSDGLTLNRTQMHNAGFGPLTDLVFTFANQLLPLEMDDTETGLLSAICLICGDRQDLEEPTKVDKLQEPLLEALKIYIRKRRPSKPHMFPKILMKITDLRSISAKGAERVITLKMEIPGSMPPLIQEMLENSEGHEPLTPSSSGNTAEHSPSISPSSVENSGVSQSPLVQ
Source text: (§1) In addition to the cotransfection data, the binding of selected compounds of the present invention to the RAR and RXR receptors was also investigated according to the methodology described in M. F., Boehm, et al., “Synthesis and Structure-Activity Relation-ships of Novel Retinoid X Receptor Selective Retinoids”, 37 J. Med. Chem., 2930 (1994); M. F. Boehm, et al., “Synthesis of High Specific Activity [^3H]-9-cis Retinoic Acid and Its Application for Identifying Retinoids with Unusual Binding Properties”, 37 J. Med. Chem., 408 (1994), and E. A. Allegretto, et al., “Characterization and Comparison of Hormone-Binding and Transactivation Properties of Retinoic Acid and Retinoid X Receptors Expressed in Mammalian Cells and Yeast”, 268 J. Biol. Chem., 22625 (1993), the disclosures of which are herein incorporated by reference.
(§2) Non-specific binding was defined as that binding remaining in the presence of 500 nM of the appropriate unlabelled compound. At the end of the incubation period, bound ligand was separated from free. The amount of bound tritiated retinoid was determined by liquid scintillation counting of an aliquot (700 μL) of the supernatant fluid or the hydroxylapatite pellet.
(§3) After correcting for non-specific binding, IC50 values were determined. The IC50 value is defined as the concentration of competing ligand needed to reduce specific binding by 50%. The IC50 value was determined graphically from a log-logit plot of the data. The Ki values were determined by application of the Cheng-Prussof equation to the IC50 values, the labeled ligand concentration and the Kd of the labeled ligand.

RARα = target: T2, RARα (Homo sapiens, UniProt P10276); conditions: read-out: RAR Binding alpha
T2 sequence (P10276 1-462): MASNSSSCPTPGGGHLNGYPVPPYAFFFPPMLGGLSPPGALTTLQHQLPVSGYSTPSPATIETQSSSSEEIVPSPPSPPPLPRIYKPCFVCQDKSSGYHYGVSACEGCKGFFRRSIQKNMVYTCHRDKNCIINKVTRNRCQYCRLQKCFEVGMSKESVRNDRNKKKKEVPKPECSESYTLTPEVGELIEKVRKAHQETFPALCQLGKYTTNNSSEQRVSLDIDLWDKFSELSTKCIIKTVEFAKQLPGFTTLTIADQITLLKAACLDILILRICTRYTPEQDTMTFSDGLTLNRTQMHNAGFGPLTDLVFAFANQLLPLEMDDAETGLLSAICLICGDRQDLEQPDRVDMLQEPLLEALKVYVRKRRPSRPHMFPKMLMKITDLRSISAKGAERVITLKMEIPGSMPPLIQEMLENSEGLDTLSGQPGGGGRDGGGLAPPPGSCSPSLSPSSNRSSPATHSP
Source text: as §1, §2, §3

RARγ = target: T3, RARγ (Homo sapiens, UniProt P13631); conditions: read-out: RAR Binding gamma
T3 sequence (P13631 1-454): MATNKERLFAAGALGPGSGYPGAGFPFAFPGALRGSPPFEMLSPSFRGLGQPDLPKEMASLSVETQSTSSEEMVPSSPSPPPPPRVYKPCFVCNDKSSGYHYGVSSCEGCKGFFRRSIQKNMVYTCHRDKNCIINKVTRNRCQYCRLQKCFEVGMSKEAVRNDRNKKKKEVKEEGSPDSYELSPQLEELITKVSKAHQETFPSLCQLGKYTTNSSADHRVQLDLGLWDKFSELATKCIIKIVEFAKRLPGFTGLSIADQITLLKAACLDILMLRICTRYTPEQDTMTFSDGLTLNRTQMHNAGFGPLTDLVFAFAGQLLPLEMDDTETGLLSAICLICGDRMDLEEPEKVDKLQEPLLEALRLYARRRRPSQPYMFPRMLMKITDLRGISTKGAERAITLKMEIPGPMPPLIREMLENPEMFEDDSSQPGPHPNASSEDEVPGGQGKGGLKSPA
Source text: as §1, §2, §3

| SMILES | Ki (RARβ) [µM] | Ki (RARα) [µM] | Ki (RARγ) [µM] |
| --- | --- | --- | --- |
| C/C(=C/C=C(F)/C(C)=C/C(=O)O)c1cc(C(C)(C)C)cc(C(C)(C)C)c1OCC(F)F [Example 1, 7-[3,5-di-tert-butyl-2-(2,2-difluoroethoxy)-phenyl]4-fluoro-3-methyl-octa-2,4,6-trienoic acid] | 6.63 | 1.15 | – |
| C/C(=C/C(F)=C/C(C)=C/C(=O)O)c1cc(C(C)(C)C)cc(C(C)(C)C)c1OCC(F)F [Example 2, 7-[3,5-Di-tert-butyl-2-(2,2-difluoroethoxy)-phenyl]-5-fluoro-3-methyl-octa-2,4,6-trienoic acid] | 2.75 | > 10 | – |
| CCCCOc1c(\C(C)=C/C=C/C(=C/C(=O)O)C(F)(F)F)cc(C(C)C)cc1C(C)C [Example 3, (2Z,4E,6Z)-7-(2-Butoxy-3,5-diisopropylphenyl)-3-trifluoromethyl-octa-2,4,6-trienoic acid] | > 10 | > 10 | > 10 |
| CCCCOc1c(\C(C)=C/C=C/C(=C\C(=O)O)C(F)(F)F)cc(C(C)C)cc1C(C)C [Example 4, (2E,4E,6Z)-7-(2-Butoxy-3,5-diisopropylphenyl)-3-trifluoromethyl-octa-2,4,6-trienoic acid] | > 10 | > 10 | > 10 |
| CCOc1c(\C(=C/C=C/C(C)=C/C(=O)O)C(F)(F)F)cc(C(C)(C)C)cc1C(C)(C)C [Example 5, (2E,4E,6E)-3-methyl-7-(2-ethoxy-3,5-di-tert-butylphenyl)-8,8,8-trifluoroocta-2,4,6-trienoic acid] | 7.25 | > 10 | > 10 |
